The values below are quoted from earlier work in patent US20180271836A1, “TOPICAL NON-AQUEOUS PHARMACEUTICAL FORMULATIONS CONTAINING AN ALKYL SULFOXIDE FOR THE TREATMENT OF TOPICAL REFERENCE INFECTIONS” (priority 2012, published 2018).

In the case of `Clc1ccc(COC(Cn2ccnc2)c2ccc(Cl)cc2Cl)c(Cl)c1` (stereo not shown) [miconazole], the pKa – broadly, the pH at which an ionisable group is half protonated – is 6.5.
